Columns and labels:
[1] = test system: JAK1-dependent cytokines involved in allergy and inflammation (IL-2, IL-4, IL-6, and IL-13) as well as pruritus (IL-31); details: published data; cited from earlier work
[2] = test system: murine CD4+ and CD8+ T cells; details: not IFN-γ-producing cells; cited from earlier work
[3] = test system: erythropoietin, granulocyte/macrophage colony-stimulating factor, IL-12, IL-23; details: GM-CSF, read-out: IC50's, cytokines that do not activate the JAK1 enzyme in cells; cited from earlier work
T cell proliferation = details: published data; cited from earlier work
[4] = test system: Primary canine dermal fibroblasts; test: Cytokine assay in primary dermal fibroblast cultures (Example 26); format: cell-based
JAK kinases = details: range over JAK kinases; read-out: IC50, inhibition of JAK kinases; cited from earlier work
[5] = test system: canine DH82 macrophage cell line; test: Cytokine assay in DH82 macrophage cultures (Example 26); format: cell-based
[6] = test system: K562 human myelogenous leukemia target cells; test: Cytotoxicity towards K562 target cells (CD107a; Example 13); format: cell-based; details: PBMC co-cultured with K562
Excerpt: Natural killer (NK) cell cytotoxicity towards K562 human myelogenous leukemia target cells. The cell surface expression of CD107a (LAMP-1) is a marker for secretory degranulation of NK and activated cytotoxic T cells when they are co-cultured with malignant or virus-infected target cells. Peripheral blood mononuclear cells from healthy human donors were co-cultured with K562 cells in the absence versus presence of test products or matching concentrations of the DMSO solvent control. All treatments, including each concentration of test product and each positive and negative control, were tested in triplicate. CD107a-FITC antibody (6.5 μL/well) was added at the beginning of each culture, along with the protein transport inhibitor BD GolgiStop™, which contains Monensin and blocks intracellular protein transport processes. After 4 h of incubation at 37° C., 5% CO2, the cells were washed in phosphate-buffered saline and stained with CD3-PerCP and CD56-PE antibodies and then fixed in formalin. Flow cytometry analysis was performed where the strategy involved initial gating of the lymphocyte and monocyte subpopulations using the forward/side scatter plot, followed by analysis of T cells and NK cells in the lymphocyte population. The fluorescence intensity of CD107a was evaluated as the mean fluorescence intensity on monocytes, NK cells, and T cells.

[7] = test system: human peripheral blood mononuclear cells; test: Cytokine, chemokine and growth factor production in human PBMC cultures (Example 13); format: cell-based
Excerpt: Proof of the antipruritic activity of oleandrin was established in vitro according to Example 13 by measuring its effect upon on the expression of key cytokines, chemokines, and other factors that are part of the innate immune system. An in vitro model of human peripheral blood mononuclear cells was used to determine effects the effects of OCC under different culture conditions: normal (no inflammation) and inflamed by lipopolysaccharide (LPS).
Reagents. Dulbecco's phosphate-buffered saline (Gibco cat. #141190-136), lipopolysaccharide (LPS) (Invitrogen cat. #00-4976-93), Roswell Park Memorial Institute 1640 cell culture medium (Gibco cat. #11835-030), Fetal Bovine Serum (Gibco cat. #A38401-01), penicillin-streptomycin 100× (Gibco cat. #15140-122), CD69 fluorescein isothiocyanate (clone FN50, Invitrogen cat. #11-0699-42), CD56 phycoerythrin (clone CMSSB Invitrogen cat. #12-0567-42), and CD3 Super Bright 645 (clone OKT3 Invitrogen cat. #64-0037-42) were purchased from Thermo Fisher Scientific (Waltham, MA, USA). CD25 Brilliant Violet 421 (clone 2A3 BD cat. #564033) and sodium heparin Vacutainer tubes (BD cat. #367878) were purchased from Becton-Dickinson (Franklin Lakes, NJ, USA). The human erythroleukemia cell line K562 was purchased from American Type Culture Collection (Manassas, VA, USA). Customized Bio-Plex Pro™ human cytokine arrays were purchased from Bio-Rad Laboratories Inc. (Hercules, CA, USA). […]
The two products were handled in the following manner: (1) A stock solution of PBI was prepared in DMSO, and subsequent dilutions were prepared in phosphate-buffered saline. […] The range of concentrations in cell cultures was calculated based on the % oleandrin and ranged from 0.5 to 500 ng oleandrin/mL cell culture medium. […]
Immune cell activation. […] The PBMC were washed twice in PBS and counted, and the density was adjusted to establish 0.18 mL cultures with a cell density at 106/mL, using Roswell Park Memorial Institute 1640 medium containing 10% fetal calf serum and 1% penicillin-streptomycin. […]

[8] = test system: Natural Killer (NK) cells and monocytes; test: Immune cell activation in PBMC cultures (CD69, CD25; Example 13); format: cell-based, human
Experimental: Immune cell activation. Peripheral venous blood was drawn from healthy human donors upon written informed consent, as approval by the Sky Lakes Medical Center Institutional Review Board, Federalwide Assurance 2603. The blood was drawn into heparin vacutainer vials, and the peripheral blood mononuclear cells (PBMC) were isolated using Lympholyte Poly by centrifugation for 35 min at 400×g. The PBMC were washed twice in PBS and counted, and the density was adjusted to establish 0.18 mL cultures with a cell density at 106/mL, using Roswell Park Memorial Institute 1640 medium containing 10% fetal calf serum and 1% penicillin-streptomycin.
Cultures were then incubated at 37° C., 5% CO2 for 24 h. The highly inflammatory LPS from Escherichia coli was used as a positive control for immune-cell activation. In parallel, IL-2 was used as a positive control for natural killer (NK)-cell activation, at a concentration of 100 IU/mL in cell culture. Untreated negative control cultures consisted of PBMC exposed to phosphate-buffered saline in the absence of test products. […] The fluorescence intensities for CD3, CD25, CD56, and CD69 were measured by flow cytometry, using an Attune NxT acoustic-focusing flow cytometer (Thermo Fisher Scientific, Waltham, MA, USA). […] The lymphocyte subpopulation was further analyzed for CD25 and CD69 expression on CD3−CD56+ NK cells, CD3+ CD56+ NKT cells, and CD3+CD56− T cells.

[9] = test system: BT (Bos taurus turbinate), MDBK (Bos taurus kidney) and MARC 145 (monkey kidney) cells; test: Lactate dehydrogenase release assay (LDH assay), Example 18; format: cell-based; details: up to concentrations of 1 microg/mL
Experimental: Oleandrin (PhytoLab, Vestenbergsgreuth, Germany) was dissolved at a concentration of 1 mg/ml in DMSO. The desired concentration range to be used in cytotoxicity testing is 0.005-1 ug/ml in 0.0005-0.1% wt in DMSO, respectively. Lactate dehydrogenase release assay (LDH assay) was be used to determine the cytotoxic effect of different concentration of Oleandrin on different cell cultures. LDH is a cytosolic enzyme that is released only from damaged cells (due to increased membrane permeability) to the outside medium that will convert the lactate in the medium into pyruvate in a coupled reaction that includes the reduction of NAD+ into NADH, the latter is oxidized back to NAD+ in the presence of Diaphorase in the LDH kit mix that leads to the reduction of water soluble tetrazolium (INT), that is also in the kit mix, into red Formazon product that can be read by an ELISA reader at a wave length of 490 nm. […]
This was achieved by preparing different concentration of cells in 100 μl volume staring at 1000 cell/100 μl to 20,000 cell/100 μl in a 2-fold serial dilution manner. […] After performing the test according to the manufacturer instructions, the average OD value reading of the triplicate for each dilution in each set was taken and plotted against number of cells. […] Absorbance is measured at 490 nm and 680 nm using Spectramax i3x. […]

[10] = test system: dogs suffering from pruritus or atopic dermatitis; test: Treatment of pruritus / atopic dermatitis in dogs (Examples 14, 15, 28); format: in vivo, dog; details: oral, 1-2 times daily, 2-6 or 3-5 microg oleandrin/Kg
Experimental: (§1) A dog presenting with pruritus was administered the aqueous liquid composition of Example 2. It contained 0.1-5 μg OLE/mL. The composition (0.25-1 mL) was administered (1-4 times daily) directly to the dog's mouth, thereby resulting in a combination of buccal and sublingual administration. […] Both inflammation and itchiness were relieved.
as §1, with “the MCT-based” for “the aqueous liquid”, “Example 21.” for “Example 2.”, “contained 12-25” for “contained 0.1-5”, “OLE/mL. A few drops of the” for “OLE/mL. The”, “mL) is” for “mL) was”
A dog presenting with pruritus was administered the aqueous liquid composition of Example 11. The composition was sprayed (1-4 pumps) directly onto the itchy area of the dog and rubbed into the skin and fur/hair. […] Both inflammation and itchiness were relieved.
Oleandrin (oleander extract) was orally administered in two different forms. The oil-based formulation of Example 21 was sprayed onto dog treats and administered between meals or sprayed onto dog food and administered as part of a meal. The chews of Example 27 were orally administered between meals. Both products were administered 1-2 times daily at doses ranging from 2-6 (preferably 3-5) microg oleandrin/Kg of bodyweight. […]

| Structure (SMILES) | concentrations at which anti-inflammatory properties have been reported [1] | frequency of IL-4- and IL-10-producing murine CD4+ and CD8+ T cells [2] | IC50 [3] | concentration at which inhibition of T cell proliferation was seen (T cell proliferation) | levels of IL-8 and MCP-1 [4] | IC50 (JAK kinases) | IL-6, IFN-γ, and NGF-β ([5]; cytokines involved in dermal inflammation) | TGF-β1, IL12/IL-23p40, and TNF-α ([5]; less robust than the reductions triggered by OE and oleandrin) | T cell cytotoxic attack on malignant target cells [6] | production of cytokines [7] | expression of IFN-γ, G-CSF, and IL-6 ([7]; 0.5 to 500 ng oleandrin/mL) | formation/expression of IL-21, IL-22, IL-23, IL-25, IL-31, IL-33, and TNF-α ([7]; 0.5 to 500 ng oleandrin/mL) | activation of Natural Killer (NK) cells and monocytes [8] | toxicity, release of lactate dehydrogenase [9] | time until improvements became evident [10] | itching and scratching ([10]; as included in an oleander extract) | IL-6, IL-12/IL-23p40, IFN-γ, TNF-α, VEGF, and NGF-β ([5]; DH82 macrophage cultures, inflamed conditions (LPS), 24 hours) |
| --- | --- | --- | --- | --- | --- | --- | --- | --- | --- | --- | --- | --- | --- | --- | --- | --- | --- |
| CNS(=O)(=O)C[C@H]1CC[C@H](N(C)c2ncnc3[nH]ccc23)CC1 [oclacitinib] | 36 to 249 nM | reduces | > 1000 nM | 10 µM | little or no effect | 10 to 99 nM | increases | reductions | – | – | – | – | – | – | – | – | – |
| CO[C@H]1C[C@H](O[C@H]2CC[C@@]3(C)[C@H](CC[C@@H]4[C@@H]3CC[C@]3(C)[C@@H](C5=CC(=O)OC5)[C@@H](OC(C)=O)C[C@]43O)C2)O[C@@H](C)[C@@H]1O [oleandrin] | – | – | – | – | reduced | – | – | – | increased | increased | induced | suppressed | directly activated | no additional toxicity over control vehicle | 1 to 3 days | significant reduction in itching and scratching | reductions |

From patent US20260199384A1, “METHOD AND COMPOSITIONS FOR TREATING SKIN DISORDERS” (PHOENIX ANIMAL WELLNESS, INC., priority 2023, published 2026)
